The values that follow come from patent publication US7265130B2, “NPY Y5 antagonist” (Shionogi & Co., Ltd., priority 1999, dated 2007).

The target in experiment [1] is T1, human NPY Y5 receptor (Homo sapiens, UniProt Q15761).
T1 construct: expressed in transfected cells
T1 sequence (Q15761 1-445): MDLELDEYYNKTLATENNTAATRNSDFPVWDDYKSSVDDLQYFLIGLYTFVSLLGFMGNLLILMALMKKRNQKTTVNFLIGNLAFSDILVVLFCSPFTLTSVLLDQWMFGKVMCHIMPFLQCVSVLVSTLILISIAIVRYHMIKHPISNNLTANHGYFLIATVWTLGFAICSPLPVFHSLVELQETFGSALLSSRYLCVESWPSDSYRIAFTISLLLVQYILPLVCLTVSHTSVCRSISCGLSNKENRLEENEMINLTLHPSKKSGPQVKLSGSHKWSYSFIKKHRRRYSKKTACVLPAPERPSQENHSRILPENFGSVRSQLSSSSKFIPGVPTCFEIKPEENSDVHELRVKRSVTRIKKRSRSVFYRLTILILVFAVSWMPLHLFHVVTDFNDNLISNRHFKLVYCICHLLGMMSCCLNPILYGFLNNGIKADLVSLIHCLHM
The experiment in a line: Affinity for NPY Y5 receptor ([125I] peptide YY binding, CHO cell membranes). Particulars: inhibition of specific [125I] peptide YY binding, membranes of CHO cells expressing NPY Y5 receptor. The essentials:
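IC50 is inhibition of specific [125I] peptide YY binding (60 pM final; non-specific defined by 200 nM peptide YY), read by gamma counting after filtration. Binding used stably transfected CHO-cell membranes with compound, 2 hours at 25° C, pH 7.4 HEPES-Hanks/0.1% BSA.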

Experiment [2] addresses T1, human NPY Y5 receptor. In words: cAMP production inhibitory activity in CHO cells. The note with it: against 50 nM NPY inhibition of forskolin stimulated cAMP, CHO cells expressing human NPY Y5 receptor. In kind it is cell-based. The procedure, abridged: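 Supernatant cAMP quantified by EIA after HCl stop, following 30 min stimulation with 10 μM forskolin and 50 nM NPY. Compound was added 5 min before stimulation to human NPY Y5-expressing CHO cells pretreated 20 min at 37 °C with 2.5 mM isobutylmethylxanthine.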
For orientation: cAMP levels reflect the balance of adenylyl cyclase and phosphodiesterase activity.

The next experiment concerns the target T2, NPY Y2 receptor (Homo sapiens, UniProt P49146).
T2 construct: membranes prepared from Y2-expression cells (human neuroblastoma, SMS-KAN); endogenous in cells; host or cells: SMS-KAN human neuroblastoma cells (membranes)
T2 sequence (P49146 1-381): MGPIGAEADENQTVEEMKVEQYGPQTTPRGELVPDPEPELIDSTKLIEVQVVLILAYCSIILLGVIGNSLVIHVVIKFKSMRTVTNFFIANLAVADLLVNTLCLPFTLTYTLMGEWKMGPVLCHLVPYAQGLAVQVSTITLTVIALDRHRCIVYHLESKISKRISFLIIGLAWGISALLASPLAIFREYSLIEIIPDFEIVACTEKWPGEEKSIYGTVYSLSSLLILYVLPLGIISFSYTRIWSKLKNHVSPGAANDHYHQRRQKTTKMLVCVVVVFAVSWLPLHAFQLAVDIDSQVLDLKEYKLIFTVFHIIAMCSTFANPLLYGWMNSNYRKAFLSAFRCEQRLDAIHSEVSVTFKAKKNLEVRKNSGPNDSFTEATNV
The experiment in a line: Affinity for NPY Y2 receptor (membranes from SMS-KAN cells). Particulars: membranes from Y2-expression cells (human neuroblastoma, SMS-KAN); read-out: Binding IC50 for NPY Y2 receptor. As to the method: (§1) The membranes prepared from the above CHO cells expressing NPY Y5 receptor, the compound of the present invention and 30,000 cpm [^125I] peptide YY (60 pM of final concentration: Amersham) were incubated in the assay buffer (20 mM HEPES-Hanks buffer containing 0.1% bovine serum albumin, pH 7.4) at 25° C. for 2 hours, and then the mixture was filtered with a glassfilter GF/C treated with polyethyleneimine. After the glassfilter was washed with 50 mM Tris-HCl buffer (pH 7.4), the radioactivity on the filter was measured with a gamma counter. The non-specific binding was detected in the presence of 200 nM of peptide YY. The 50% inhibitory concentration of the test compound against the specific peptide YY binding (IC50 value) was calculated (Inui, A. et al. Endocrinology 131, 2090-2096 (1992)).
(§2) Using the membranes prepared from Y1-expression cells (human neuroblastoma, SK-N-MC) and the membranes prepared from Y2-expression cells (human neuroblastoma, SMS-KAN), the experiment was carried out in a similar way as Experiment 1 to determine the affinity for NPY Y1 receptor and NPY Y2 receptor.

A further experiment addresses T3, NPY Y1 receptor (Homo sapiens, UniProt P25929).
T3 construct: membranes prepared from Y1-expression cells (human neuroblastoma, SK-N-MC); endogenous in cells; host or cells: SK-N-MC human neuroblastoma cells (membranes)
T3 sequence (P25929 1-384): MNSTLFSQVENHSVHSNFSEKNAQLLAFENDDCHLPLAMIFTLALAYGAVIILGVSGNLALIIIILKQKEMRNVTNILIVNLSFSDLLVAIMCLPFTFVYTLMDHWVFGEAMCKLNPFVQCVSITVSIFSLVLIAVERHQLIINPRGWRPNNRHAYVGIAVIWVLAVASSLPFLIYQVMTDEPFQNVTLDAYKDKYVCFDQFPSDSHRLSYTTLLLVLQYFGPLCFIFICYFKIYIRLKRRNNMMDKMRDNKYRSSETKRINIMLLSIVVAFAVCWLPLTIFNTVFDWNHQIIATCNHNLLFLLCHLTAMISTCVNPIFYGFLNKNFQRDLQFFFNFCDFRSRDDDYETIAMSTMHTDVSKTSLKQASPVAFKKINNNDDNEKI
The experiment in a line: Affinity for NPY Y1 receptor (membranes from SK-N-MC cells). Particulars: membranes from Y1-expression cells (human neuroblastoma, SK-N-MC); read-out: Binding IC50 for NPY Y1 receptor. As to the method: as §1, §2

The structures appear in SMILES notation.

For orientation: IC50 means the concentration needed to halve the response being measured. As for `CC(C)(C)S(=O)(=O)NC1CCC(C(=O)Nc2ccc3oc(=O)ccc3c2)CC1` (stereo not drawn) [Ia-62], the IC50 was 1.1 nM at human NPY Y5 receptor [1], 29 nM at human NPY Y5 receptor [2], no less than 100 µM at NPY Y2 receptor and no less than 100 µM on NPY Y1 receptor.

Regarding `C[C@@H]1CN(c2ccc(NC(=O)N3CCC(NS(=O)(=O)C(C)(C)C)CC3)cc2)C[C@H](C)O1` [Ia-67], the IC50 at human NPY Y5 receptor [1] is 6.3 nM; on human NPY Y5 receptor [2], 75 nM; on NPY Y2 receptor it was no less than 100 µM; at NPY Y1 receptor, no less than 100 µM.

Take `C[C@@H]1CN(c2ccc(NC(=O)c3ccc(NS(=O)(=O)C(C)(C)C)cc3)cc2)C[C@H](C)O1` [Ia-124]: the 50% inhibitory concentration (IC50) at human NPY Y5 receptor [1] is 1.1 nM; against human NPY Y5 receptor [2], 22 nM; on NPY Y2 receptor, no less than 100 µM; on NPY Y1 receptor it was no less than 100 µM.

Turning to `CC(C)(C)S(=O)(=O)Nc1ccc(C(=O)Nc2ccc3ncsc3c2)cc1` [Ia-126], the IC50 is 2.3 nM on human NPY Y5 receptor [1], 58 nM at human NPY Y5 receptor [2], no less than 100 µM on NPY Y2 receptor and no less than 100 µM on NPY Y1 receptor.

Take `CC(C)(C)S(=O)(=O)Nc1ccc(C(=O)Nc2ccc(N3CC=CC3)cc2)cc1` [Ia-139]: the IC50 at human NPY Y5 receptor [1] is 1.9 nM; against human NPY Y5 receptor [2], 25 nM; on NPY Y2 receptor, no less than 100 µM; on NPY Y1 receptor, no less than 100 µM.

On to `CC(C)S(=O)(=O)NC1CCC(C(=O)Nc2ccc(C(F)(F)F)cc2)CC1` (stereo not drawn) [Ia-140], for which the IC50 on human NPY Y5 receptor [1] was 1 nM; at human NPY Y5 receptor [2] it was 24 nM; on NPY Y2 receptor it was no less than 100 µM; on NPY Y1 receptor, no less than 100 µM.

With `CC(C)(C)S(=O)(=O)NC1CCC(C(=O)Nc2ccc(C(F)(F)F)cn2)CC1` (stereo not drawn) [Ia-178], the IC50 at human NPY Y5 receptor [1] was 4.6 nM; against human NPY Y5 receptor [2], 16 nM; on NPY Y2 receptor it was no less than 100 µM; at NPY Y1 receptor, no less than 100 µM.

In the case of `CC(C)S(=O)(=O)NC1CCC(C(=O)Nc2cccc(OC3CCCC3)c2)CC1` (stereo not drawn) [Ia-199], the IC50 was 0.11 nM at human NPY Y5 receptor [1], 1.6 nM against human NPY Y5 receptor [2], no less than 100 µM on NPY Y2 receptor and no less than 100 µM on NPY Y1 receptor.

On to `CC(C)(C)S(=O)(=O)NC1CCC(C(=O)Nc2ccc(OC3CCOCC3)cc2)CC1` (stereo not drawn) [Ia-200], for which the IC50 on human NPY Y5 receptor [1] is 1.4 nM; on human NPY Y5 receptor [2], 18 nM; at NPY Y2 receptor it was no less than 100 µM; at NPY Y1 receptor, no less than 100 µM.
